From publication PMC3492951 (Journal of the American Chemical Society, 2011)

How the values were obtained:
SAH hydrolase = conditions: in cells / in vivo; cited from earlier work
PRMT1 = PRMT1 (Homo sapiens, UniProt Q99873); assay: PRMT1 enzyme inhibition; assay type: biochemical; conditions: read-out: Ki PRMT1; competitive inhibitors
G9a = target: T1, G9a (Homo sapiens, UniProt Q96KQ7); assay: G9a enzyme inhibition; assay type: biochemical
T1 sequence (Q96KQ7 1-1210): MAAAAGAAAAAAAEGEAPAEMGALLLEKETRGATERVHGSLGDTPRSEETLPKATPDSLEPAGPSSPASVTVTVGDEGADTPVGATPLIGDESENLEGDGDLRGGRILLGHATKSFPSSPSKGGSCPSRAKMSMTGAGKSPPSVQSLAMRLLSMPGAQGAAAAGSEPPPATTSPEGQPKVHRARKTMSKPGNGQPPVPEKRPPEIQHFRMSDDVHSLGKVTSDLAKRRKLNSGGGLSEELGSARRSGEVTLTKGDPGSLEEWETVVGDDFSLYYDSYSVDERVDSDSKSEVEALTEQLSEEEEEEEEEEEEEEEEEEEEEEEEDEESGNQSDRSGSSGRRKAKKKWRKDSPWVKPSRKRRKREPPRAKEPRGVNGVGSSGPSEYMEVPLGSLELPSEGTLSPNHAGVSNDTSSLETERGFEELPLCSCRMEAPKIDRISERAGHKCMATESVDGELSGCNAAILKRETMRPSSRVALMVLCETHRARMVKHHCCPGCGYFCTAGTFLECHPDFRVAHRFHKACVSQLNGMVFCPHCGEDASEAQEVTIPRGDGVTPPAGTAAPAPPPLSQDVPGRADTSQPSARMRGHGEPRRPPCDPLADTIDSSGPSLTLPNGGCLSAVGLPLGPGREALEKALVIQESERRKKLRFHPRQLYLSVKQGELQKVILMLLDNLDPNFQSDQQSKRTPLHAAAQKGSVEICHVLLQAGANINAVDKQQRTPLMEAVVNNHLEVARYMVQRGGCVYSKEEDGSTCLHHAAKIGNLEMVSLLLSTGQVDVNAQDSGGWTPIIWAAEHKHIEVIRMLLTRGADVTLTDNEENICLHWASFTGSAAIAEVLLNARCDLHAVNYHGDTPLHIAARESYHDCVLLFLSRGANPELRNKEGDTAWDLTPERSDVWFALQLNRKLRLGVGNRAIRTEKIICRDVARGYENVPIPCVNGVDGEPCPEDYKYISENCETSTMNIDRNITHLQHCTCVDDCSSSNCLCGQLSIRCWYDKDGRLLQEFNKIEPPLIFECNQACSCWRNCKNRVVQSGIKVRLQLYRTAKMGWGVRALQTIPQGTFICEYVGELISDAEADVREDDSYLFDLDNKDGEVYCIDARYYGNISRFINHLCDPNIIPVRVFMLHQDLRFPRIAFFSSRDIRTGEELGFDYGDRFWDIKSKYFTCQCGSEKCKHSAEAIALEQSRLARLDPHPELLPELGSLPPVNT

[1] = target: T2, CARM1 (also known as PRMT4) (Homo sapiens, UniProt Q86X55); assay: CARM1 enzyme inhibition; assay type: biochemical; conditions: read-out: Ki CARM1; competitive inhibitors
T2 sequence (Q86X55 1-608): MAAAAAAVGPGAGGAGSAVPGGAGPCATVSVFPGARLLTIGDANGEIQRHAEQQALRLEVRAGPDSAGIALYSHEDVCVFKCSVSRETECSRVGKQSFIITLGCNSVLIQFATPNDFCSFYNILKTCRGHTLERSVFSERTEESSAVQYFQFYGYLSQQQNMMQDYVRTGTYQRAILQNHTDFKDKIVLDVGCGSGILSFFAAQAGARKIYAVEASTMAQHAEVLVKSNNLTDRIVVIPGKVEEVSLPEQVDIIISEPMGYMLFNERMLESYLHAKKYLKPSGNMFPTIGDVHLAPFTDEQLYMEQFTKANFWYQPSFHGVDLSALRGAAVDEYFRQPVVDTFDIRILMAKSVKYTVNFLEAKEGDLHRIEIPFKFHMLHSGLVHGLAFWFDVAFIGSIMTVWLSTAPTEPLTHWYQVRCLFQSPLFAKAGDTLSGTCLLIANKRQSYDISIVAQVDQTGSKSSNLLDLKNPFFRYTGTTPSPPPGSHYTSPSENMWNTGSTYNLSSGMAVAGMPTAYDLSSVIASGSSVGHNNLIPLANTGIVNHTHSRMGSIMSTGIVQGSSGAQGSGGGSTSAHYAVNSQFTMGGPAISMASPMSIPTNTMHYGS

PRMT1, sequence (Q99873 whole entry, species assumed): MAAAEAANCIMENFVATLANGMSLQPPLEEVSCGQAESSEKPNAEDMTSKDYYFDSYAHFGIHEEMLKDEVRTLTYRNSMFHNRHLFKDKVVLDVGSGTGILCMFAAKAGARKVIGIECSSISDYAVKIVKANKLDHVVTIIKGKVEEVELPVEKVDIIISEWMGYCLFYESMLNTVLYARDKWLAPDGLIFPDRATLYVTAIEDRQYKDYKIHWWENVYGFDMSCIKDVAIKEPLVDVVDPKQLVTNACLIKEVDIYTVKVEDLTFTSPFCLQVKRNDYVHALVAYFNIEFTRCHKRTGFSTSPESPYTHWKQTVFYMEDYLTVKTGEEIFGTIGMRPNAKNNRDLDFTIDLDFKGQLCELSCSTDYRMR

Ki (PRMT1)	activity on G9a (G9a)	Ki (G9a; read-out: Ki G9a, competitive inhibitors)	Ki [1]	Compound	degradation to adenosine and homocysteine by SAH hydrolase (SAH hydrolase)
				Nc1ncnc2c1ncn2[C@@H]1O[C@H](CSCC[C@H](N)C(=O)O)[C@@H](O)[C@H]1O [SAH, S-(5'-adenosyl)-L-homocysteine]	quickly degraded
21.2 µM	inactive	> 100 µM	18 µM	N[C@@H](CCSC[C@H]1O[C@@H](n2cnc3c(NCc4ccccc4)ncnc32)[C@H](O)[C@@H]1O)C(=O)O [Compound 2, N6-benzyl-SAH]	
